Activity calls are given as the source filed them. The calls are words filed in the database; no cut-off is given here.
What was measured:
[1] = system: Escherichia coli; assay: Antimicrobial activity against azide-resistant Escherichia coli J53 transconjugant with 16S rRNA methylase armA gene expressing Acinetobacter baumannii isolate D; format: functional, organism-based
[2] = system: Acinetobacter baumannii; assay: Antibacterial activity against Acinetobacter baumannii isolate B expressing 16S rRNA methylase armA gene; format: functional
[3] = system: Acinetobacter baumannii; assay: Antibacterial activity against Acinetobacter baumannii isolate E expressing 16S rRNA methylase armA gene; format: functional
[4] = system: Acinetobacter baumannii; assay: Antimicrobial activity against colistin-resistant Acinetobacter baumannii 213 transconjugant with 16S rRNA methylase armA gene expressing Acinetobacter baumannii isolate B; format: functional, organism-based
[5] = system: Acinetobacter baumannii; assay: Antibacterial activity against Acinetobacter baumannii isolate A expressing 16S rRNA methylase armA gene; format: functional
[6] = system: Acinetobacter baumannii; assay: Antimicrobial activity against colistin-resistant Acinetobacter baumannii 213 transconjugant with 16S rRNA methylase armA gene expressing Acinetobacter baumannii isolate E; format: functional, organism-based
[7] = system: Acinetobacter baumannii; assay: Antibacterial activity against Acinetobacter baumannii isolate C expressing 16S rRNA methylase armA gene; format: functional
[8] = system: Acinetobacter baumannii; assay: Antimicrobial activity against colistin-resistant Acinetobacter baumannii 213 transconjugant with 16S rRNA methylase armA gene expressing Acinetobacter baumannii isolate C; format: functional, organism-based
[9] = system: Escherichia coli; assay: Antibacterial activity against Escherichia coli DH10B expressing Acinetobacter baumannii isolate B 16S rRNA methylase armA gene; format: functional; details: K-12 substr. DH10B
[10] = system: Acinetobacter baumannii; assay: Antibacterial activity against Acinetobacter baumannii isolate D expressing 16S rRNA methylase armA gene; format: functional
[11] = system: Acinetobacter baumannii; assay: Antibacterial activity against armA knockout Acinetobacter baumannii 231; format: functional, organism-based
[12] = system: Acinetobacter baumannii; assay: Antimicrobial activity against colistin-resistant Acinetobacter baumannii 213 transconjugant with 16S rRNA methylase armA gene expressing Acinetobacter baumannii isolate D; format: functional, organism-based
[13] = system: Escherichia coli; assay: Antimicrobial activity against azide-resistant Escherichia coli J53 transconjugant with 16S rRNA methylase armA gene expressing Acinetobacter baumannii isolate C; format: functional, organism-based
[14] = system: Acinetobacter baumannii; assay: Antimicrobial activity against colistin-resistant Acinetobacter baumannii 213 transconjugant with 16S rRNA methylase armA gene expressing Acinetobacter baumannii isolate A; format: functional, organism-based
[15] = system: Escherichia coli; assay: Antimicrobial activity against azide-resistant Escherichia coli J53 transconjugant with 16S rRNA methylase armA gene expressing Acinetobacter baumannii isolate B; format: functional, organism-based
[16] = system: Escherichia coli; assay: Antimicrobial activity against azide-resistant Escherichia coli J53 transconjugant with 16S rRNA methylase armA gene expressing Acinetobacter baumannii isolate E; format: functional, organism-based
[17] = system: Escherichia coli; assay: Antimicrobial activity against azide-resistant Escherichia coli J53 transconjugant with 16S rRNA methylase armA gene expressing Acinetobacter baumannii isolate A; format: functional, organism-based

Compound | Activity [1] | MIC [2] [µg/mL] | MIC [3] [µg/mL] | Activity [4] | MIC [5] [µg/mL] | Activity [6] | MIC [7] [µg/mL] | Activity [8] | MIC [9] [µg/mL] | MIC [10] [µg/mL] | Activity [11] | Activity [12] | Activity [13] | Activity [14] | Activity [15] | Activity [16] | Activity [17]
NCC[C@H](O)C(=O)N[C@@H]1C[C@H](N)[C@@H](O[C@H]2O[C@H](CN)[C@@H](O)[C@H](O)[C@H]2O)[C@H](O)[C@H]1O[C@H]1O[C@H](CO)[C@@H](O)[C@H](N)[C@H]1O [AMIKACIN] | Active | > 512 | > 512 | Active | > 512 | Active | > 512 | Active | ≥ 256 | > 512 | Active | Active | Active | Active | Active | Active | Active
NC[C@H]1O[C@H](O[C@H]2[C@H](O)[C@@H](O[C@H]3O[C@H](CO)[C@@H](O)[C@H](N)[C@H]3O)[C@H](N)C[C@@H]2N)[C@H](N)C[C@@H]1O [TOBRAMYCIN] | – | > 512 | > 512 | – | > 512 | – | > 512 | – | ≥ 256 | > 512 | – | – | – | – | – | – | –
GENTAMICIN | – | > 512 | > 512 | – | > 512 | – | > 512 | – | > 256 | > 512 | – | – | – | – | – | – | –

From ChEMBL document CHEMBL1137657, “Identification of 16S rRNA methylase-producing Acinetobacter baumannii clinical strains in North America” (2007)
